What was measured:
[1] = biological target: Acetylcholinesterase (Electrophorus electricus) (UniProt O42275); conditions: at 2 mg/mL
Description: Inhibition of electric eel AChE at 2 mg/ml by Ellman's method

[2] = biological target: Cholinesterase (Equus caballus) (UniProt P81908); conditions: at 2 mg/mL
Sequence of Cholinesterase (Equus caballus) (P81908 whole entry): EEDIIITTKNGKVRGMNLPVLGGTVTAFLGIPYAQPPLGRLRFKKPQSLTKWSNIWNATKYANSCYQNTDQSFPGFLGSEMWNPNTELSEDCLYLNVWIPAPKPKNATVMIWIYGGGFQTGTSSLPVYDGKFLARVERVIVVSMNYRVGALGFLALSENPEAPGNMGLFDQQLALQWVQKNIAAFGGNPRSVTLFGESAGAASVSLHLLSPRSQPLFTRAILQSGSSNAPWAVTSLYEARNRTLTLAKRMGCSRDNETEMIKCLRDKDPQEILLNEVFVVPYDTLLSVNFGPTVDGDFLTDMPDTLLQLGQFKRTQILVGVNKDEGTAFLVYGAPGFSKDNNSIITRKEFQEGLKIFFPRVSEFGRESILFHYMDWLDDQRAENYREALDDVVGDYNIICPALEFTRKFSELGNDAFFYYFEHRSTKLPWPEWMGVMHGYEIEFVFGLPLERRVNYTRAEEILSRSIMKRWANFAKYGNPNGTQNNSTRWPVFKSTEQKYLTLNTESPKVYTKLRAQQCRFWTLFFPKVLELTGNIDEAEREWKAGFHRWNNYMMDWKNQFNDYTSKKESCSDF
Description: Inhibition of horse BChE at 2 mg/ml by Ellman's method

Sequence of Acetylcholinesterase (Electrophorus electricus) (O42275 24-633 limits assumed): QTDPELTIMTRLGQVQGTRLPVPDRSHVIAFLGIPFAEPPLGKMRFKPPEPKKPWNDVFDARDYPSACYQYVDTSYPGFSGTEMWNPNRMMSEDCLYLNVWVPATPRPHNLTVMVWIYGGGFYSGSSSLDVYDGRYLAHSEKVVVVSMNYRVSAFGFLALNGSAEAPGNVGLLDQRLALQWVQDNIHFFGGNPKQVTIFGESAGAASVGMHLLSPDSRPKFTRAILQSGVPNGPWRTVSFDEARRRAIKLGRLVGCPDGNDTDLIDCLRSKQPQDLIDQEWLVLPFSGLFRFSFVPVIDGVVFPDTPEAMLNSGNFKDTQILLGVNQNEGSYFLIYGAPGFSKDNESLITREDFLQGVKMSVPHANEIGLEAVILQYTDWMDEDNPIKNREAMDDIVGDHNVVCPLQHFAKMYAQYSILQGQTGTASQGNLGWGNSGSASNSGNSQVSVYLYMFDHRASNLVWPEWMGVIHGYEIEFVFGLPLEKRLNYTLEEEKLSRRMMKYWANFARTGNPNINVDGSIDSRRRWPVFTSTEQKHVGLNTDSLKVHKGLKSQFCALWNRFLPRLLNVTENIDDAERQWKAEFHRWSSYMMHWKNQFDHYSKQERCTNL

Structure (SMILES) | inhibition [1] [%] | inhibition [2] [%]
C=C(C)[C@H]1CN[C@H](C(=O)O)[C@H]1CC(=O)O | -5.89 | 4.53
C[C@H]1CC[C@@]2(OC1)O[C@H]1C[C@H]3[C@@H]4CC[C@@H]5C[C@@H](O)CC[C@]5(C)[C@H]4CC[C@]3(C)[C@H]1[C@@H]2C | -3.09 | -2.96
O=C1C[C@@H](c2ccc(O)c(O)c2)Oc2c1ccc(O[C@@H]1O[C@H](CO)[C@@H](O)[C@H](O)[C@H]1O)c2O | 8.08 | 3.1
C1CCN2C[C@@H]3C[C@@H](CN4CCCC[C@@H]34)[C@H]2C1 | 4.72 | 5.31
CN1[C@@H]2CC[C@H]1C[C@@H](OC(=O)[C@H](CO)c1ccccc1)C2 | 15.5 | 3.5
COc1cc(=O)oc(/C=C/C=C/C=C/C(C)=C/[C@@]2(C)O[C@H](C)[C@](C)(O)[C@H]2O)c1C | 27.1 | 16.6
CCC1=C[C@@H]2CN(C1)Cc1c([nH]c3ccccc13)[C@@](C(=O)OC)(c1cc3c(cc1OC)N(C)[C@H]1[C@@](O)(C(=O)OC)[C@H](OC(C)=O)[C@]4(CC)C=CCN5CC[C@]31[C@@H]54)C2 | -0.32 | 12.2
c1ccc2c(c1)[nH]c1cnccc12 | -1.66 | 28.7
CC1=C[C@]23C(=O)[C@@H](C=C(COC(=O)c4ccccc4)[C@@H](O)[C@]2(O)[C@H]1OC(=O)c1ccccc1)[C@H]1[C@@H](C[C@H]3C)C1(C)C | -0.16 | 1
CCCC(=O)O[C@@H]1[C@@H](C)[C@@]2(O)[C@@H](C=C(CO)C[C@]3(O)C(=O)C(C)=C[C@@H]23)[C@@H]2C(C)(C)[C@]12OC(=O)CCC (stereo in doubt; form 1) | 22.5 | 0.87
O=C(/C=C/c1ccc(O)c(O)c1)O[C@@H]1C[C@](O)(C(=O)O)C[C@@H](O)[C@H]1O | 10.8 | 4.8
CC(=O)N[C@H]1CN2CC[C@H](O)[C@@H]2[C@@H](O)[C@@H]1O | 2.39 | 9.19
CC(C)(O)CC[C@@H](O)[C@](C)(O)[C@H]1CC[C@@]2(O)C3=CC(=O)[C@@H]4C[C@@H](O)[C@@H](O)C[C@]4(C)[C@H]3CC[C@]12C | 3.26 | -3.01
COc1cc2c(c(OC)c1OC)-c1ccc(OC)c(=O)cc1[C@@H](NC(C)=O)CC2 | 0.14 | 0.1
CC(C)(O)[C@@H]1[C@H]2OC(=O)[C@@H]1[C@]1(O)C[C@H]3O[C@]34C(=O)O[C@H]2[C@]14C | 22.6 | 1.96
CC[C@H](C)C(=O)O[C@H]1CCC=C2C=C[C@H](C)[C@H](CC[C@@H]3C[C@@H](O)CC(=O)O3)[C@H]21 | -9.46 | 7.39
O=C(CCc1ccc(O)cc1)c1c(O)cc(O)cc1O[C@@H]1O[C@H](CO)[C@@H](O)[C@H](O)[C@H]1O | -6.94 | 5.38
O=c1c(O)c(-c2ccc(O)c(O)c2)oc2cc(O)ccc12 | 27.5 | 2.06
COc1ccc(C[C@H](N)C(=O)N[C@H]2[C@@H](O)[C@H](n3cnc4c(N(C)C)ncnc43)O[C@@H]2CO)cc1 | -7.92 | -9.98
CC(C)C[C@H](NC(=O)[C@H]1O[C@@H]1C(=O)O)C(=O)NCCCCN=C(N)N | -7.43 | 12.1
C[C@H]1CC[C@]2(NC1)O[C@H]1C[C@H]3[C@@H]4CC[C@H]5C[C@@H](O)CC[C@]5(C)[C@H]4CC[C@]3(C)[C@H]1[C@@H]2C | 11.4 | 6.89
Oc1cc(O)c2c(c1)O[C@H](c1ccc(O)c(O)c1)[C@H](O)C2 | -4.81 | 0.47

Structure (SMILES) | inhibition [1] [%] | inhibition [2] [%]
C/C=C1\[C@H]2C=C(C)C[C@]1(N)c1ccc(=O)[nH]c1C2 | 97.3 | 11.8
CN(C)Cc1c[nH]c2ccccc12 | 15.3 | 10.6
OCc1c[nH]c2ccccc12 | -4.82 | 9.11
COc1cc(O)c(C(=O)/C=C/c2ccccc2)c(OC)c1 | 27.1 | 4.56
COc1ccc(-c2cc(=O)c3c(O)cc(O)cc3o2)cc1O | -8.89 | -6.13
CC1(C)[C@@H](O)C[C@H]2[C@](C)(O)[C@@H]3CC[C@@H]4[C@@H](O)[C@@]3(C[C@@H](O)[C@@]21O)C[C@@]4(C)O | -8.91 | 4.52
O=c1c(O)c(-c2cc(O)c(O)c(O)c2)oc2cc(O)cc(O)c12 | 4.65 | -3.14
COc1c2occc2cc2ccc(=O)oc12 | 4.4 | 8.34
C[C@H]1O[C@@H](O[C@H]2[C@@H](O)C[C@H](O[C@H]3[C@@H](O)C[C@H](O[C@H]4CC[C@@]5(C)[C@H](CC[C@@H]6[C@@H]5CC[C@]5(C)[C@@H](C7=CC(=O)OC7)CC[C@]65O)C4)O[C@@H]3C)O[C@@H]2C)C[C@H](O)[C@@H]1O | -1.83 | -0.78
CN1[C@H]2CC(=O)C[C@@H]1C(O)C2 (some centres not stated) | -7.3 | -3.92
CC(C)=CC[C@@H](O)C1=CC(=O)c2c(O)ccc(O)c2C1=O | 15.7 | 3.58
C[C@@H]1C[C@H]2CC[C@H](O2)[C@H](C)C(=O)O[C@@H](C)C[C@@H]2CC[C@@H](O2)[C@@H](C)C(=O)O[C@H](C)C[C@H]2CC[C@@H](O2)[C@H](C)C(=O)O[C@@H](C)C[C@@H]2CC[C@@H](O2)[C@@H](C)C(=O)O1 | 16.4 | -1.31
CC(C)[C@H]1C(=O)O[C@@H]2CCN3CC=C(COC(=O)[C@](C)(O)[C@]1(C)O)[C@H]23 | 24.2 | 3.04
Cc1cc(=O)oc2cc(O)ccc12 | 4.46 | 0.88
COC1=CC(=O)C[C@@H](C)[C@]12Oc1c(Cl)c(OC)cc(OC)c1C2=O | -8.73 | -4.49
COc1ccc(-c2cc(=O)c3c(O)cc(O[C@@H]4O[C@H](CO[C@@H]5O[C@@H](C)[C@H](O)[C@@H](O)[C@H]5O)[C@@H](O)[C@H](O)[C@H]4O)cc3o2)cc1O | 9.59 | 7.92
C[C@@H]1CC[C@H]2[C@](C)(CO)[C@@H](O)CC[C@]2(C)[C@@]12CC[C@@](CO)(CCO)O2 | -4.53 | 6.75
COc1ccc2[nH]cc(CCNC(C)=O)c2c1 | 15.5 | 1.01
CC[C@@H](C(=O)[C@@H](C)[C@@H](O)[C@H](C)CCc1ccc(C)c(O)c1C(=O)O)[C@H]1O[C@](CC)([C@H]2CC[C@](O)(CC)[C@H](C)O2)C[C@@H]1C | -1.88 | 10.5
COc1c(O)cc(O)c2c(=O)cc(-c3ccccc3)oc12 | -1.48 | -5.86
O=c1cc(-c2ccccc2)oc2cc(O)c(O)cc12 | 23.1 | 1.82
COc1cc2c(cc1OC)[C@H]1[C@@H](C)c3ccc(OC)c(OC)c3CN1CC2 | 13.9 | -0.53

Structure (SMILES) | inhibition [1] [%] | inhibition [2] [%]
CCCCCCCCCCCCCC(=O)O[C@@H]1[C@@H](C)[C@@]2(O)[C@@H](C=C(CO)C[C@]3(O)C(=O)C(C)=C[C@@H]23)[C@@H]2C(C)(C)[C@]12OC(C)=O | 19.6 | -6.35
CCOC(=O)[C@H]1O[C@@H]1C(=O)N[C@@H](CC(C)C)C(=O)NCCC(C)C | 1.24 | -0.73
CC1=CC(=O)C(C(C)C)=CC1=O | 7.9 | -0.33
COC(=O)[C@@H]1[C@H]2C[C@H]3c4[nH]c5ccccc5c4CCN3C[C@@H]2CC[C@@H]1O | 16.2 | -2.5
COc1cc([C@@H]2c3cc4c(cc3[C@@H](O[C@@H]3O[C@@H]5CO[C@@H](C)O[C@H]5[C@H](O)[C@H]3O)[C@H]3COC(=O)[C@H]23)OCO4)cc(OC)c1O | -9.19 | -5.72
C=C1[C@H]2C[C@@]3([C@@H]1O)[C@@H](CC2=O)[C@]12[C@@H]4C[C@H]3[C@H]1N(CC)C[C@]4(C)CC[C@@H]2O | 26.3 | 1.01
CC(C)=CCC/C(C)=C/CC/C(C)=C/CC/C(C)=C/C(=O)O | -5.57 | -2.05
CO[C@@H]1[C@H](OC(=O)/C=C/C=C/C=C/C=C/C(=O)O)CC[C@]2(CO2)[C@H]1[C@@]1(C)O[C@@H]1CC=C(C)C | -8.57 | -3.3
COc1c2ccoc2cc2oc(=O)ccc12 | 21.3 | 10.3
C/C=C(\C)C(=O)O[C@H]1CC(C)=CC(=O)[C@@]2(C)CC[C@@](O)(C(C)C)[C@H]12 | 16.6 | -1.66
O=C(/C=C/c1ccc(O)c(O)c1)c1ccc(O)cc1O | 10.1 | -0.63
O=c1cc(-c2ccc(O)c(OC3O[C@H](CO)[C@@H](O)[C@H](O)[C@H]3O)c2)oc2cc(OC3O[C@H](CO)[C@@H](O)[C@H](O)[C@H]3O)cc(O)c12 (some centres not stated) | 28.6 | -2.06
Cc1cc(Cc2cc(C)cc(C(C)(C)C)c2O)c(O)c(C(C)(C)C)c1 | -4.45 | 0.28
O=c1c(O)c(-c2ccccc2)oc2cc(O)cc(O)c12 | 6.98 | 2.59
COc1ccc([C@@H]2CC(=O)c3c(O)cc(O[C@@H]4O[C@H](CO)[C@@H](O)[C@H](O)[C@H]4O[C@@H]4O[C@@H](C)[C@H](O)[C@@H](O)[C@H]4O)cc3O2)cc1O | 4.86 | 0.1
O=c1c(-c2ccc(O)cc2)coc2cc(O)ccc12 | -3.93 | 0.02
COc1ccc2c3c4n(c2c1)[C@H](C=C(C)C)OOC(C)(C)C[C@@H]4N1C(=O)[C@@H]2CCCN2C(=O)[C@]1(O)[C@H]3O | 1.5 | 18
C=C1C(=O)O[C@@H]2C3O[C@]3(C)CC/C=C(\C)CC[C@@H]12 (some centres not stated) | -5.29 | 14
O=c1cc(-c2ccc(O)cc2)oc2cc(OC3O[C@H](CO)[C@@H](O)[C@H](O)[C@H]3O)cc(O)c12 (some centres not stated) | 24.9 | 5
COc1cc2c(cc1O)C[C@H]1c3c(cc(O)c(OC)c3-2)CCN1C | 9.51 | 1.24
C[N+]1(C)CCC[C@H]1C(=O)[O-] | -9.74 | -3.98
C[C@H]1C(=O)CC[C@@H]2[C@]1(C)CC[C@H]1[C@@]2(C)CC[C@@]2(C)[C@@H]3CC(C)(C)CC[C@]3(C)CC[C@]12C | -3.69 | -0.57

From ChEMBL document CHEMBL2163249, “Exploration of natural compounds as sources of new bifunctional scaffolds targeting cholinesterases and beta amyloid aggregation: the case of chelerythrine” (Bioorg Med Chem, 2012)
